Results: US20070049564A1 (Wyeth, priority 2005, published 2007)
Converted amounts (≈) assume the structure as drawn. Read-outs that look alike come from different tables or passages of the source.

How the values were obtained:
E. coli GC 2232 = assay: MIC, broth microdilution; conditions: Escherichia coli, GC2232, E. coli GC 2232
E. coli GC 2270 = assay: MIC, broth microdilution; conditions: Escherichia coli, GC2270, E. coli GC 2270
E. coli GC 2271 = assay: MIC, broth microdilution; conditions: Escherichia coli, GC2271, E. coli GC 2271
E. coli GC 4559 = assay: MIC, broth microdilution; conditions: Escherichia coli, GC4559, E. coli GC 4559
E. coli GC 3226 = assay: MIC, broth microdilution; conditions: Escherichia coli, GC3226, E. coli GC 3226
E. coli GC 1073 = assay: MIC, broth microdilution; conditions: Escherichia coli, GC1073, E. coli GC 1073
Procedure: Antimicrobial susceptibility testing. The in vitro activities of the antibiotics are determined by the broth microdilution method as recommended by the National Committee for Clinical Laboratory Standards (NCCLS) (1). Mueller-Hinton II broth (MHBII)(BBL Cockeysville, Md.) is the medium employed in the testing procedures. Microtiter plates containing serial dilutions of each antimicrobial agent are inoculated with each organism to yield the appropriate density (10^5 CFU/ml) in a 100 μl final volume. The plates are incubated for 18-22 hours at 35° C. in ambient air.
Representative compounds were first incubated in mouse serum for an hour prior to the in vitro testing against a panel of selected gram-positive and gram-negative bacteria strains. All compounds were also pre-incubated in water for an hour prior to testing as control. Representative compounds of Formula I were incubated in human serum prior to MIC determination.

P. aeruginosa GC 2214 = assay: MIC, broth microdilution; conditions: Pseudomonas aeruginosa, GC2214, P. aeruginosa GC 2214
S. aureus GC 4536 = assay: MIC, broth microdilution; conditions: Staphylococcus aureus, GC4536, S. aureus GC 4536
S. aureus GC 2216 = assay: MIC, broth microdilution; conditions: Staphylococcus aureus, GC2216, S. aureus GC 2216
Procedure: Antimicrobial susceptibility testing. The in vitro activities of the antibiotics are determined by the broth microdilution method as recommended by the National Committee for Clinical Laboratory Standards (NCCLS) (1). Mueller-Hinton II broth (MHBII)(BBL Cockeysville, Md.) is the medium employed in the testing procedures. Microtiter plates containing serial dilutions of each antimicrobial agent are inoculated with each organism to yield the appropriate density (10^5 CFU/ml) in a 100 μl final volume. The plates are incubated for 18-22 hours at 35° C. in ambient air. […] Standard Pharmacological Test Procedures
Presented in Tables I-XIII are representative compounds of Formula I which were evaluated against a panel of 40 selected gram-positive and gram-negative bacteria strains by pre-incubation in water, mouse serum or human serum. Representative compounds were first incubated in mouse serum for an hour prior to the in vitro testing against a panel of selected gram-positive and gram-negative bacteria strains. All compounds were also pre-incubated in water for an hour prior to testing as control. Representative compounds of Formula I were incubated in human serum prior to MIC determination.

S. aureus GC 6335 = assay: MIC, broth microdilution; conditions: Staphylococcus aureus, GC6335, S. aureus GC 6335
S. aureus GC 6469 = assay: MIC, broth microdilution; conditions: Staphylococcus aureus, GC6469, S. aureus GC 6469
E. faecalis GC 2265 = assay: MIC, broth microdilution; conditions: Enterococcus faecalis, GC2265, E. faecalis GC 2265
E. faecalis GC 2242 = assay: MIC, broth microdilution; conditions: Enterococcus faecalis, GC2242, E. faecalis GC 2242
E. faecium GC 2243 = assay: MIC, broth microdilution; conditions: Enterococcus faecium, GC2243, E. faecium GC 2243
S. pneumoniae+ GC 4465 = assay: MIC, broth microdilution; conditions: Streptococcus pneumoniae, S. pneumoniae+ GC 4465
S. pyogenes GC 4563 = assay: MIC, broth microdilution; conditions: Streptococcus pyogenes, GC4563, S. pyogenes GC 4563
S. agalactiae GC 4564 = assay: MIC, broth microdilution; conditions: Streptococcus agalactiae, GC4564, S. agalactiae GC 4564
c. albicans GC 3066 = assay: MIC, broth microdilution
E. coli = assay: Range of MIC for E. coli strains; conditions: Escherichia coli
Staph. aureus Smith = assay: In vivo activity (oral, iv; ED50) against Staph. aureus Smith in mice
Procedure: Representative examples of compounds of Formula I were tested for the oral efficacy using S. aureus Smith in mice.

[1] = c. albicans GC 3066, Water pre-incubation
[2] = 20 h, read-out: Range of MIC, E. coli (Mouse Serum)
[3] = read-out: Range of MIC, E. coli (Water)
[4] = read-out: Range of MIC, E. coli (mouse serum)
[5] = read-out: Range of MIC, E. coli (water)
[6] = Staphylococcus aureus, in Mus musculus, po, read-out: ED50 Staph Smith SOD
[7] = iv, read-out: ED50 Staph Smith SIV

Compound `CCCN(CC(=O)Nc1cc(N(C)C)c2c(c1O)C(=O)C1=C(O)[C@]3(O)C(=O)C(C(N)=O)=C(O)[C@@H](N(C)C)[C@@H]3C[C@@H]1C2)C(=O)OCOC(=O)c1ccc(C)cc1` [Example 5, ({[(2-{[(5aR,6aS,7S,10aS)-9-(aminocarbonyl)-4,7-bis(dimethylamino)-1,8,10a,11-tetrahydroxy-10,12-dioxo-5,5a,6,6a,7,10,10a,12-octahydrotetracen-2-yl]amino}-2-oxoethyl)(propyl)amino]carbonyl}oxy)methyl 4-methylbenzoate] has an MIC (E. coli GC 2232; Mouse Serum pre-incubation) of 2 µg/mL (≈ 2.62 µM), an MIC (E. coli GC 2232; Water pre-incubation) of 32 µg/mL (≈ 41.9 µM) and an MIC (E. coli GC 2270; Mouse Serum pre-incubation) of 1 µg/mL (≈ 1.31 µM). The MIC (E. coli GC 2270; Water pre-incubation) was 16 µg/mL (≈ 20.9 µM), the MIC (E. coli GC 2271; Mouse Serum pre-incubation) was 1 µg/mL (≈ 1.31 µM) and the MIC (E. coli GC 2271; Water pre-incubation) was 16 µg/mL (≈ 20.9 µM). For the same compound, the MIC (E. coli GC 4559; Mouse Serum pre-incubation) was 2 µg/mL (≈ 2.62 µM), the MIC (E. coli GC 4559; Water pre-incubation) was 32 µg/mL (≈ 41.9 µM) and the MIC (E. coli GC 3226; Mouse Serum pre-incubation) was 2 µg/mL (≈ 2.62 µM). It also gave an MIC (E. coli GC 3226; Water pre-incubation) of 32 µg/mL (≈ 41.9 µM), an MIC (E. coli GC 1073; Mouse Serum pre-incubation) of 2 µg/mL (≈ 2.62 µM) and an MIC (E. coli GC 1073; Water pre-incubation) of 32 µg/mL (≈ 41.9 µM). It also gave an MIC (P. aeruginosa GC 2214; Mouse Serum pre-incubation) of 32 µg/mL (≈ 41.9 µM), an MIC (P. aeruginosa GC 2214; Water pre-incubation) greater than 64 µg/mL and an MIC (S. aureus GC 4536; Mouse Serum pre-incubation) of 1 µg/mL (≈ 1.31 µM). It also gave an MIC (S. aureus GC 4536; Water pre-incubation) of 1 µg/mL (≈ 1.31 µM), an MIC (S. aureus GC 2216; Mouse Serum pre-incubation) of 0.5 µg/mL (≈ 0.655 µM) and an MIC (S. aureus GC 2216; Water pre-incubation) of 2 µg/mL (≈ 2.62 µM). The MIC (S. aureus GC 6335; Mouse Serum pre-incubation) was 0.5 µg/mL (≈ 0.655 µM), the MIC (S. aureus GC 6335; Water pre-incubation) was 1 µg/mL (≈ 1.31 µM) and the MIC (S. aureus GC 6469; Mouse Serum pre-incubation) was 2 µg/mL (≈ 2.62 µM). It also gave an MIC (S. aureus GC 6469; Water pre-incubation) of 4 µg/mL (≈ 5.24 µM), an MIC (E. faecalis GC 2265; Mouse Serum pre-incubation) of 2 µg/mL (≈ 2.62 µM) and an MIC (E. faecalis GC 2265; Water pre-incubation) of 4 µg/mL (≈ 5.24 µM). It also gave an MIC (E. faecalis GC 2242; Mouse Serum pre-incubation) of 1 µg/mL (≈ 1.31 µM), an MIC (E. faecalis GC 2242; Water pre-incubation) of 2 µg/mL (≈ 2.62 µM) and an MIC (E. faecium GC 2243; Mouse Serum pre-incubation) of 0.5 µg/mL (≈ 0.655 µM). The MIC (E. faecium GC 2243; Water pre-incubation) was 1 µg/mL (≈ 1.31 µM), the MIC (S. pneumoniae+ GC 4465; Mouse Serum pre-incubation) was 2 µg/mL (≈ 2.62 µM) and the MIC (S. pneumoniae+ GC 4465; Water pre-incubation) was 4 µg/mL (≈ 5.24 µM). For the same compound, the MIC (S. pyogenes GC 4563; Mouse Serum pre-incubation) was 0.12 µg/mL (≈ 0.157 µM), the MIC (S. pyogenes GC 4563; Water pre-incubation) was 0.25 µg/mL (≈ 0.327 µM) and the MIC (S. agalactiae GC 4564; Mouse Serum pre-incubation) was 0.5 µg/mL (≈ 0.655 µM). The MIC (S. agalactiae GC 4564; Water pre-incubation) was 0.5 µg/mL (≈ 0.655 µM), the MIC (c. albicans GC 3066; Candida albicans, GC3066) was greater than 64 µg/mL and the MIC (c. albicans GC 3066; [1]) was greater than 64 UG/ML. For the same compound, the MIC (E. coli; [2]) was 1 to 2 µg/mL (≈ 1.31 to 2.62 µM), the MIC (E. coli; [3]) was 16 to 64 µg/mL (≈ 20.9 to 83.8 µM) and the MIC (E. coli; [4]) was 1 to 2 µg/mL (≈ 1.31 to 2.62 µM). For the same compound, the MIC (E. coli; [5]) was 16 to 64 µg/mL (≈ 20.9 to 83.8 µM), the ED50 (Staph. aureus Smith; Staphylococcus aureus, in Mus musculus, iv, read-out: ED50 SIV (Staph aureus Smith)) was 0.5 mg/kg and the ED50 (Staph. aureus Smith; Staphylococcus aureus, in Mus musculus, po, read-out: ED50 SOD (Staph aureus Smith)) was 8.51 mg/kg. For the same compound, the ED50 (Staph. aureus Smith; [6]) was 8.51 mg/kg and the ED50 (Staph. aureus Smith; [7]) was 0.5 mg/kg.
Compound `CCCN(CC(=O)Nc1cc(N(C)C)c2c(c1O)C(=O)C1=C(O)[C@]3(O)C(=O)C(C(N)=O)=C(O)[C@@H](N(C)C)[C@@H]3C[C@@H]1C2)C(=O)OCOC(=O)c1ccc(OC)cc1` [Example 6, ({[(2-{[(5aR,6aS,7S,10aS)-9-(aminocarbonyl)-4,7-bis(dimethylamino)-1,8,10a,11-tetrahydroxy-10,12-dioxo-5,5a,6,6a,7,10,10a,12-octahydrotetracen-2-yl]amino}-2-oxoethyl)(propyl)amino]carbonyl}oxy)methyl 4-methoxybenzoate] has an MIC (E. coli GC 2232; Mouse Serum pre-incubation) of 2 µg/mL (≈ 2.56 µM), an MIC (E. coli GC 2232; Water pre-incubation) of 32 µg/mL (≈ 41 µM) and an MIC (E. coli GC 2270; Mouse Serum pre-incubation) of 1 µg/mL (≈ 1.28 µM). The MIC (E. coli GC 2270; Water pre-incubation) was 8 µg/mL (≈ 10.3 µM), the MIC (E. coli GC 2271; Mouse Serum pre-incubation) was 1 µg/mL (≈ 1.28 µM) and the MIC (E. coli GC 2271; Water pre-incubation) was 8 µg/mL (≈ 10.3 µM). For the same compound, the MIC (E. coli GC 4559; Mouse Serum pre-incubation) was 2 µg/mL (≈ 2.56 µM), the MIC (E. coli GC 4559; Water pre-incubation) was 16 µg/mL (≈ 20.5 µM) and the MIC (E. coli GC 3226; Mouse Serum pre-incubation) was 2 µg/mL (≈ 2.56 µM). It also gave an MIC (E. coli GC 3226; Water pre-incubation) of 16 µg/mL (≈ 20.5 µM), an MIC (E. coli GC 1073; Mouse Serum pre-incubation) of 2 µg/mL (≈ 2.56 µM) and an MIC (E. coli GC 1073; Water pre-incubation) of 16 µg/mL (≈ 20.5 µM). It also gave an MIC (P. aeruginosa GC 2214; Mouse Serum pre-incubation) of 32 µg/mL (≈ 41 µM), an MIC (P. aeruginosa GC 2214; Water pre-incubation) greater than 64 µg/mL and an MIC (S. aureus GC 4536; Mouse Serum pre-incubation) of 0.5 µg/mL (≈ 0.641 µM). It also gave an MIC (S. aureus GC 4536; Water pre-incubation) of 2 µg/mL (≈ 2.56 µM), an MIC (S. aureus GC 2216; Mouse Serum pre-incubation) of 0.5 µg/mL (≈ 0.641 µM) and an MIC (S. aureus GC 2216; Water pre-incubation) of 2 µg/mL (≈ 2.56 µM). The MIC (S. aureus GC 6335; Mouse Serum pre-incubation) was 0.5 µg/mL (≈ 0.641 µM), the MIC (S. aureus GC 6335; Water pre-incubation) was 2 µg/mL (≈ 2.56 µM) and the MIC (S. aureus GC 6469; Mouse Serum pre-incubation) was 2 µg/mL (≈ 2.56 µM). For the same compound, the MIC (S. aureus GC 6469; Water pre-incubation) was 4 µg/mL (≈ 5.13 µM), the MIC (E. faecalis GC 2265; Mouse Serum pre-incubation) was 2 µg/mL (≈ 2.56 µM) and the MIC (E. faecalis GC 2265; Water pre-incubation) was 4 µg/mL (≈ 5.13 µM). For the same compound, the MIC (E. faecalis GC 2242; Mouse Serum pre-incubation) was 1 µg/mL (≈ 1.28 µM), the MIC (E. faecalis GC 2242; Water pre-incubation) was 2 µg/mL (≈ 2.56 µM) and the MIC (E. faecium GC 2243; Mouse Serum pre-incubation) was 0.5 µg/mL (≈ 0.641 µM). The MIC (E. faecium GC 2243; Water pre-incubation) was 2 µg/mL (≈ 2.56 µM), the MIC (S. pneumoniae+ GC 4465; Mouse Serum pre-incubation) was 2 µg/mL (≈ 2.56 µM) and the MIC (S. pneumoniae+ GC 4465; Water pre-incubation) was 2 µg/mL (≈ 2.56 µM). The MIC (S. pyogenes GC 4563; Mouse Serum pre-incubation) was 0.25 µg/mL (≈ 0.321 µM), the MIC (S. pyogenes GC 4563; Water pre-incubation) was 0.25 µg/mL (≈ 0.321 µM) and the MIC (S. agalactiae GC 4564; Mouse Serum pre-incubation) was 0.5 µg/mL (≈ 0.641 µM). It also gave an MIC (S. agalactiae GC 4564; Water pre-incubation) of 0.5 µg/mL (≈ 0.641 µM), an MIC (c. albicans GC 3066; Candida albicans, GC3066) greater than 64 µg/mL and an MIC (c. albicans GC 3066; [1]) greater than 64 UG/ML. For the same compound, the MIC (E. coli; [2]) was 1 to 2 µg/mL (≈ 1.28 to 2.56 µM), the MIC (E. coli; [3]) was 8 to 64 µg/mL (≈ 10.3 to 82.1 µM) and the MIC (E. coli; [4]) was 1 to 2 µg/mL (≈ 1.28 to 2.56 µM). For the same compound, the MIC (E. coli; [5]) was 8 to 64 µg/mL (≈ 10.3 to 82.1 µM), the ED50 (Staph. aureus Smith; [6]) was 20.1 mg/kg and the ED50 (Staph. aureus Smith; [7]) was 0.87 mg/kg.
